target: T1, human Nav1.8 (hNav1.8) ion channel (Homo sapiens, UniProt Q9Y5Y9); test: Nav1.8 inhibition, estimated IC50 (Nav1.8 fluorescence, PatchXpress and/or IonFlux HT automated patch clamp assay); assay type: cell-based; details: HEK293 cells stably expressing hNav1.8; determined using one or more of the described methods; read-out: Activity range (estimated IC50)
T1 construct: expressed in transfected cells
Experimental: The ability of pyridine carboxamide derivatives exemplified above to inhibit the Nav1.8 channel was determined using one or more of the methods described below.
HEK Nav1.8 β1/β2 Stably Expressing Cell Line
A HEK293 cell line stably expressing the human Nav1.8 (hNav1.8) ion channel with β1/β2 subunits was constructed. The cell line is suitable for IC50 determination in fluorescence and electrophysiological based assays. It is also suitable to conduct mechanism of action pharmacology studies in electrophysiological assays. HEK293 Nav1.8 cells are grown as adherent monolayers in DMEM/high glucose media, 10% fetal bovine serum, Na pyruvate (2 mM), Hepes (10 mM) with selection agents G418 (400 mg/L) and puromycin (0.5 mg/L) at 37 degrees C., 10% CO2.
Nav1.8 Fluorescence Inhibition Assay
Compounds were made up to or supplied as a 10-mM stock solution using DMSO as the vehicle. Concentration-response curves were generated using a Matrix multichannel pipettor. Compound source plates were made by diluting 10 mM compound stocks to create 500 μM (100×) solutions in DMSO in 96-well v-bottom plates. Compounds were then serially diluted in 100% DMSO to generate a 5 point, 4-fold dilution scheme dose response curve. 2 μL of the 100× dose response curves were then added to preincubation and stimulation assay plates. 100 μL of pre-incubation buffer and 200 μl of stimulation buffer was then added to the plates resulting in a final assay test concentration range of 5 μM to 0.02 μM with a final DMSO concentration of 1%.
On the day of assay, plates were washed to remove cell culture media using 2K EBSS buffer (135 mM NaCl, 2 mM KCl, 5 mM Glucose, 2 mM CaCl2, 1 mM MgCl2, 10 mM HEPES, pH 7.4). The Na-sensitive fluorescent dye, Asante Natrium Green-2 (ANG-2) was incubated for 60 min to allow equilibration and then washed with 2K EBSS. Plates were then transferred to a fluorescence plate reader (FLIPR™, Molecular Devices) for fluorescence measurement using an excitation wavelength of 490 nm and an emission wavelength of 565 nm. Compounds were pre-incubated for 5 min at final test concentration in the presence of ouabain (30 μM) to inhibit Na+ efflux through Na+/K+ exchanger. Following the pre-incubation phase, hNav1.8 channels were stimulated with 10 μM of the pyrethroid deltamethrin to prevent channel inactivation. The assay was run for 15 minutes with vehicle and 30 μM tetracaine serving as negative and positive controls, respectively. The peak change in fluorescence relative to negative and positive control wells was calculated and fit with a logistic equation to determine IC50.
PatchXpress Nav1.8 Inhibition Assay
HEK-Nav1.8 β1/β2 cells were recorded in whole cell patch-clamp using the PatchXpress automated patch clamp platforms (Molecular Devices). Cell suspensions were obtained by trypsinization of adherent monolayers, followed by gentle rocking for minimally 30 min. Compounds were prepared from 10 mM DMSO stocks.
Nav1.8 channel variants were evaluated using Protocol 1 in which cells were initially voltage clamped at a holding potential of −100 mV to maintain Nav1.8 in a closed resting state. After current amplitude becomes stable, the mid-point voltage of steady state inactivation was determined for each cell using a series of 5 sec conditioning steps to increasingly depolarized voltages (−100 to 0 mV) The holding potential was then reset to a voltage that produces ˜50% inactivation (Vhalf-set automatically via PatchXpress scripts) so that closed and inactivated channel inhibition could be assessed. Protocol 1 was run at a frequency of 0.1 Hz until current amplitude is steady (automatically determined by PatchXpress scripts). The effect of test reagent on Nav current amplitude was monitored using custom PatchXpress stability scripts which determines the timing of compound addition and washout.
Data were processed and analyzed using DataXpress 2.0 (Molecular Devices). […]

T1 sequence (Q9Y5Y9 whole entry): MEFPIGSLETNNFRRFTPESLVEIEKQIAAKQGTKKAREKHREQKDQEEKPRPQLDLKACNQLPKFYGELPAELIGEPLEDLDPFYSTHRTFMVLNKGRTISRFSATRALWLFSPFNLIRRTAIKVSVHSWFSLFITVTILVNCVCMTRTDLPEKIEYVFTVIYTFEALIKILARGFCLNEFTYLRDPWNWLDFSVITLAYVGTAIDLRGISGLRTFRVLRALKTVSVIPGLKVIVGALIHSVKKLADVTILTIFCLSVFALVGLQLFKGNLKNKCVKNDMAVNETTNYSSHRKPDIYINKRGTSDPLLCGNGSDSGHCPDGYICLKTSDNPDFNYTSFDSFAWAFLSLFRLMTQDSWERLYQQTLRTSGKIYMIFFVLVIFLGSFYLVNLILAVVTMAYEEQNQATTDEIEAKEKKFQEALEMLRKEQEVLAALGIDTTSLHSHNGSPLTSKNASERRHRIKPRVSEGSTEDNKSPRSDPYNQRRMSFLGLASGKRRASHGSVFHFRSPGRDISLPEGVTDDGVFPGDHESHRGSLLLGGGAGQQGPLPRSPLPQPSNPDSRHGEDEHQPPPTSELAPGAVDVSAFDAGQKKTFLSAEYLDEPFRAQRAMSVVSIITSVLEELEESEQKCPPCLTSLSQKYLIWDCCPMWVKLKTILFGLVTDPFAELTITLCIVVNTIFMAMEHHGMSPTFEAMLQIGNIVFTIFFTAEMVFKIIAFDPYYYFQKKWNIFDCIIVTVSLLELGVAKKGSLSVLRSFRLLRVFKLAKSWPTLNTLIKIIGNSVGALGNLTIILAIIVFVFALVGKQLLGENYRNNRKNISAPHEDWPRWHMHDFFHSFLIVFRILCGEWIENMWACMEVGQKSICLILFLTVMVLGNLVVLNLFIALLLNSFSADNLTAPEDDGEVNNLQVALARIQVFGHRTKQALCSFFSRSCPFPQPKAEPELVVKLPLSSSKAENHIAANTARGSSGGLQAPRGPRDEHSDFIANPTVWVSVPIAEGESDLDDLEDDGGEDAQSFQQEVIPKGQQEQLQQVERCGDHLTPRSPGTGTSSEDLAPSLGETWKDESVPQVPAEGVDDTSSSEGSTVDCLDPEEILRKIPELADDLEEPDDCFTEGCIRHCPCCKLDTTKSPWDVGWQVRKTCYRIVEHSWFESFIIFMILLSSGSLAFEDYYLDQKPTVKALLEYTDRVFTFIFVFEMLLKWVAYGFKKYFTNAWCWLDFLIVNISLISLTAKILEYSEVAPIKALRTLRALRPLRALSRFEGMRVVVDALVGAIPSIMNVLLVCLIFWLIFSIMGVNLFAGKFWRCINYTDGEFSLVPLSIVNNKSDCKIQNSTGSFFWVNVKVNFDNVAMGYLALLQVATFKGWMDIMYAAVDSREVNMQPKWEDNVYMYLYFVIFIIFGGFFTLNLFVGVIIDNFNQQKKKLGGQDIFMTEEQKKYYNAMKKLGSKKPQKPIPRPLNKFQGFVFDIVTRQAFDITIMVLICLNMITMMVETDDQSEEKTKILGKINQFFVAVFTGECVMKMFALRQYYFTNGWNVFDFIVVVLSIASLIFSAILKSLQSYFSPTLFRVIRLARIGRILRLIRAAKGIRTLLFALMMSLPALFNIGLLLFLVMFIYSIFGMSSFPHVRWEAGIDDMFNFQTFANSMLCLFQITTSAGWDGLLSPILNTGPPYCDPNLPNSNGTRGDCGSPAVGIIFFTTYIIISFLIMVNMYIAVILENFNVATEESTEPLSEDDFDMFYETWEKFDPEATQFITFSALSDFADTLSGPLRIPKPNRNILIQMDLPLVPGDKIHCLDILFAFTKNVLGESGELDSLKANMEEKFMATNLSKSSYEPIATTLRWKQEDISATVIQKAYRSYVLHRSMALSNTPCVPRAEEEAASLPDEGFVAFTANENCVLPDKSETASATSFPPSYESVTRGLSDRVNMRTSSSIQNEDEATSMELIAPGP
T1 sequence (Q07699 19-218 partner): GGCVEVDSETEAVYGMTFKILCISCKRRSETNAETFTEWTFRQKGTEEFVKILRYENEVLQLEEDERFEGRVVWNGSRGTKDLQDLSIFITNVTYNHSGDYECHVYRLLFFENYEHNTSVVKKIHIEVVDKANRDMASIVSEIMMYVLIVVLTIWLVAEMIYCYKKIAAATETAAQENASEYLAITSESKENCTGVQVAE

| Compound | IC50 [µM] |
| --- | --- |
| 6-[4-(difluoromethoxy)phenyl]-N-[(2-morpholinophenyl)methyl]pyridazine-4-carboxamide [Example 56] | < 0.5 |
| O=C(NCc1cccnc1N1CCOCC1)c1cnnc(-c2ccc(OCC3CC3)c(Cl)c2)c1 [Example 1, 6-(3-chloro-4-(cyclopropylmethoxy)phenyl)-N-((2-morpholinopyridin-3-yl)methyl)pyridazine-4-carboxamide] | < 0.5 |
| O=C(NCc1cccnc1N1CCOCC1)c1cnnc(-c2ccc(Cl)nc2)c1 [Example 2, 6-(6-chloro-3-pyridyl)-N-[(2-morpholino-3-pyridyl)methyl]pyridazine-4-carboxamide] | > 1 |
| O=C(NCc1cccnc1N1CCOCC1)c1cnnc(-c2cccc(Cl)c2)c1 [Example 3, 6-(3-chlorophenyl)-N-[(2-morpholino-3-pyridyl)methyl]pyridazine-4-carboxamide] | 0.5 to 1 |
| Cc1cc(Cl)ccc1-c1cc(C(=O)NCc2cccnc2N2CCOCC2)cnn1 [Example 4, 6-(4-chloro-2-methyl-phenyl)-N-[(2-morpholino-3-pyridyl)methyl]pyridazine-4-carboxamide] | < 0.5 |
| CC(C)COc1ccc(-c2cc(C(=O)NCc3cccnc3N3CCOCC3)cnn2)cc1 [Example 5, 6-(4-isobutoxyphenyl)-N-[(2-morpholino-3-pyridyl)methyl]pyridazine-4-carboxamide] | < 0.5 |
| O=C(NCc1cccnc1N1CCOCC1)c1cnnc(-c2ccc(OC(F)(F)F)cc2)c1 [Example 6, N-[(2-morpholino-3-pyridyl)methyl]-6-[4-(trifluoromethoxy)phenyl]pyridazine-4-carboxamide] | < 0.5 |
| O=C(NCc1cccnc1N1CCOCC1)c1cnnc(-c2ccc(OCC(F)(F)F)cc2)c1 [Example 7, N-[(2-morpholino-3-pyridyl)methyl]-6-[4-(2,2,2-trifluoroethoxy)phenyl]pyridazine-4-carboxamide] | < 0.5 |
| O=C(NCc1cccnc1N1CCOCC1)c1cnnc(-c2ccc(OCC3CC3)cc2)c1 [Example 8, 6-[4-(cyclopropylmethoxy)phenyl]-N-[(2-morpholino-3-pyridyl)methyl]pyridazine-4-carboxamide] | < 0.5 |
| CCOc1ccc(-c2cc(C(=O)NCc3cccnc3N3CCOCC3)cnn2)cc1Cl [Example 9, 6-(3-chloro-4-ethoxy-phenyl)-N-[(2-morpholino-3-pyridyl)methyl]pyridazine-4-carboxamide] | < 0.5 |
| CCCOc1ccc(-c2cc(C(=O)NCc3cccnc3N3CCOCC3)cnn2)cc1Cl [Example 10, 6-(3-chloro-4-propoxy-phenyl)-N-[(2-morpholino-3-pyridyl)methyl]pyridazine-4-carboxamide] | < 0.5 |
| CC(C)Oc1ccc(-c2cc(C(=O)NCc3cccnc3N3CCOCC3)cnn2)cc1Cl [Example 11, 6-(3-chloro-4-isopropoxy-phenyl)-N-[(2-morpholino-3-pyridyl)methyl]pyridazine-4-carboxamide] | < 0.5 |
| CCOc1ccc(-c2cc(C(=O)NCc3cccnc3N3CCOCC3)cnn2)cc1F [Example 12, 6-(4-ethoxy-3-fluoro-phenyl)-N-[(2-morpholino-3-pyridyl)methyl]pyridazine-4-carboxamide] | < 0.5 |
| CCCOc1ccc(-c2cc(C(=O)NCc3cccnc3N3CCOCC3)cnn2)cc1F [Example 13, 6-(3-fluoro-4-propoxy-phenyl)-N-[(2-morpholino-3-pyridyl)methyl]pyridazine-4-carboxamide] | < 0.5 |
| CC(C)Oc1ccc(-c2cc(C(=O)NCc3cccnc3N3CCOCC3)cnn2)cc1F [Example 14, 6-(3-fluoro-4-isopropoxy-phenyl)-N-[(2-morpholino-3-pyridyl)methyl]pyridazine-4-carboxamide] | < 0.5 |
| O=C(NCc1cccnc1N1CCOCC1)c1cnnc(-c2ccc(OC3CC3)cc2)c1 [Example 15, 6-[4-(cyclopropoxy)phenyl]-N-[(2-morpholino-3-pyridyl)methyl]pyridazine-4-carboxamide] | < 0.5 |
| O=C(NCc1cccnc1N1CCOCC1)c1cnnc(-c2ccc(OCC3CC3)nc2)c1 [Example 16, 6-[6-(cyclopropylmethoxy)-3-pyridyl]-N-[(2-morpholino-3-pyridyl)methyl]pyridazine-4-carboxamide] | < 0.5 |

Other lines, results leading:

| IC50 [µM] | Compound |
| --- | --- |
| > 1 | O=C(NCc1cccnc1N1CCOCC1)c1cnnc(-c2ccc(Cl)cc2)c1 [Example 17, 6-(4-chlorophenyl)-N-[(2-morpholino-3-pyridyl)methyl]pyridazine-4-carboxamide] |
| < 0.5 | O=C(NCc1cccnc1N1CC2(COC2)C1)c1cnnc(-c2ccc(OCC3CC3)c(Cl)c2)c1 [Example 19, 6-[3-chloro-4-(cyclopropylmethoxy)phenyl]-N-[[2-(2-oxa-6-azaspiro[3.3]heptan-6-yl)-3-pyridyl]methyl]pyridazine-4-carboxamide] |
| < 0.5 | O=C(NCc1cccnc1OCC(F)(F)F)c1cnnc(-c2ccc(OCC3CC3)c(Cl)c2)c1 [Example 20, 6-[3-chloro-4-(cyclopropylmethoxy)phenyl]-N-[[2-(2,2,2-trifluoroethoxy)-3-pyridyl]methyl]pyridazine-4-carboxamide] |
| < 0.5 | O=C(NCc1cccnc1N1CCCOCC1)c1cnnc(-c2ccc(OCC3CC3)c(Cl)c2)c1 [Example 21, 6-[3-chloro-4-(cyclopropylmethoxy)phenyl]-N-[[2-(1,4-oxazepan-4-yl)-3-pyridyl]methyl]pyridazine-4-carboxamide] |
| < 0.5 | CC1CN(c2ncccc2CNC(=O)c2cnnc(-c3ccc(OCC4CC4)c(Cl)c3)c2)CCO1 (stereo not drawn) [Example 22, 6-[3-chloro-4-(cyclopropylmethoxy)phenyl]-N-[[2-(2-methylmorpholin-4-yl)-3-pyridyl]methyl]pyridazine-4-carboxamide] |
| < 0.5 | CC1COCCN1c1ncccc1CNC(=O)c1cnnc(-c2ccc(OCC3CC3)c(Cl)c2)c1 (stereo not drawn) [Example 23, 6-[3-chloro-4-(cyclopropylmethoxy)phenyl]-N-[[2-(3-methylmorpholin-4-yl)-3-pyridyl]methyl]pyridazine-4-carboxamide] |
| < 0.5 | Cc1ccc(CNC(=O)c2cnnc(-c3ccc(OCC4CC4)c(Cl)c3)c2)c(N2CCOCC2)n1 [Example 24, 6-[3-chloro-4-(cyclopropylmethoxy)phenyl]-N-[(6-methyl-2-morpholino-3-pyridyl)methyl]pyridazine-4-carboxamide] |
| < 0.5 | Cc1ccnc(N2CCOCC2)c1CNC(=O)c1cnnc(-c2ccc(OCC3CC3)c(Cl)c2)c1 [Example 25, 6-[3-chloro-4-(cyclopropylmethoxy)phenyl]-N-[(4-methyl-2-morpholino-3-pyridyl)methyl]pyridazine-4-carboxamide] |
| > 1 | Cc1cnc(N2CCOCC2)c(CNC(=O)c2cnnc(-c3ccc(OCC4CC4)c(Cl)c3)c2)c1 [Example 26, 6-[3-chloro-4-(cyclopropylmethoxy)phenyl]-N-[(5-methyl-2-morpholino-3-pyridyl)methyl]pyridazine-4-carboxamide] |
| < 0.5 | O=C(NCc1ccccc1N1CCOCC1)c1cnnc(-c2ccc(OCC3CC3)c(Cl)c2)c1 [Example 27, 6-[3-chloro-4-(cyclopropylmethoxy)phenyl]-N-[(2-morpholinophenyl)methyl]pyridazine-4-carboxamide] |

From patent US11993581B2, “Pyridazine compounds for inhibiting Nav1.8” (Lieber Institute, Inc., priority 2018, dated 2024)
